# Results from PubChem BioAssay (NCI).
#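 Cultured in 96-well plates, cells were exposed to test compound for 48 hours across five concentrations. TGI is the concentration that stops growth completely.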
# Experiments:
# Experiment in all cases: growth of human tumour cells (NCI), 48 h
# [1] = test system: MALME-3M melanoma
# [2] = test system: RXF 393 renal
# [3] = test system: SNB-78 CNS
# [4] = test system: LOX IMVI melanoma
# [5] = test system: UACC-62 melanoma
# [6] = test system: KM12 colon
# [7] = test system: HOP-18 NSCLC
# [8] = test system: SF-268 CNS
# [9] = test system: SF-539 CNS
# [10] = test system: HCT-15 colon
# [11] = test system: DMS 273 small cell lung
# [12] = test system: TK-10 renal
# [13] = test system: OVCAR-4 ovarian
# [14] = test system: SK-MEL-28 melanoma
# [15] = test system: COLO 205 colon
# [16] = test system: HOP-62 NSCLC
# [17] = test system: K-562 leukemia
# [18] = test system: HCT-116 colon
# [19] = test system: SNB-19 CNS
# [20] = test system: HL-60(TB) leukemia
# [21] = test system: DLD-1 colon
# [22] = test system: SK-OV-3 ovarian
# [23] = test system: SR leukemia
# [24] = test system: RXF-631 renal
# [25] = test system: UO-31 renal
# [26] = test system: 786-0 renal
# [27] = test system: SN12C renal
# [28] = test system: SK-MEL-5 melanoma
# [29] = test system: M19-MEL melanoma
# [30] = test system: LXFL 529 NSCLC
# [31] = test system: HOP-92 NSCLC
# [32] = test system: A498 renal
# [33] = test system: NCI-H226 lung
# [34] = test system: OVCAR-3 ovarian
# [35] = test system: EKVX NSCLC
# [36] = test system: CCRF-CEM leukemia
# [37] = test system: U251 CNS
# [38] = test system: OVCAR-8 ovarian
# [39] = test system: MOLT-4 leukemia
# [40] = test system: SW-620 colon
# [41] = test system: OVCAR-5 ovarian
# [42] = test system: DMS 114 small cell lung
# [43] = test system: A549 NSCLC
# [44] = test system: UACC-257 melanoma
# [45] = test system: HCC-2998 colon
# [46] = test system: RPMI-8226 leukemia
# [47] = test system: NCI-H460 lung
# [48] = test system: KM20L2 colon
# [49] = test system: XF 498 CNS
# [50] = test system: M14 melanoma
# [51] = test system: NCI-H23 lung
# [52] = test system: SNB-75 CNS
# [53] = test system: HT29 colon
# [54] = test system: IGROV1 ovarian
# [55] = test system: SK-MEL-2 melanoma
# [56] = test system: ACHN renal
# [57] = test system: SF-295 CNS
# [58] = test system: CAKI-1 renal
# [59] = test system: NCI-H522 lung
smiles,measurement,setting,value
O=C1C=Cc2c(-c3ccccc3)oc3cccc1c23,TGI,[1],> 100 µM
same,TGI,[2],> 69 µM
same,TGI,[3],> 100 µM
same,TGI,[4],> 52.7 µM
same,TGI,[5],99.1 µM
same,TGI,[6],> 100 µM
same,TGI,[7],> 100 µM
same,TGI,[8],> 100 µM
same,TGI,[9],> 100 µM
same,TGI,[10],> 75.4 µM
same,TGI,[11],> 100 µM
same,TGI,[12],> 92.2 µM
same,TGI,[13],> 100 µM
same,TGI,[14],> 100 µM
same,TGI,[15],> 82.1 µM
same,TGI,[16],> 100 µM
same,TGI,[17],48.1 µM
same,TGI,[18],> 73.1 µM
same,TGI,[19],> 100 µM
same,TGI,[20],27.9 µM
same,TGI,[21],> 100 µM
same,TGI,[22],> 80.2 µM
same,TGI,[23],> 54.4 µM
same,TGI,[24],> 100 µM
same,TGI,[25],> 82.6 µM
same,TGI,[26],> 100 µM
same,TGI,[27],> 100 µM
same,TGI,[28],> 100 µM
same,TGI,[29],> 100 µM
same,TGI,[30],> 100 µM
same,TGI,[31],73.2 µM
same,TGI,[32],> 100 µM
same,TGI,[33],> 70.9 µM
same,TGI,[34],> 100 µM
same,TGI,[35],15.5 µM
same,TGI,[36],64.6 µM
same,TGI,[37],> 100 µM
same,TGI,[38],> 100 µM
same,TGI,[39],19.5 µM
same,TGI,[40],> 100 µM
same,TGI,[41],> 96 µM
same,TGI,[42],89 µM
same,TGI,[43],> 100 µM
same,TGI,[44],> 100 µM
same,TGI,[45],> 100 µM
same,TGI,[46],19 µM
same,TGI,[47],> 80.5 µM
same,TGI,[48],> 100 µM
same,TGI,[49],67.7 µM
same,TGI,[50],> 100 µM
same,TGI,[51],62.9 µM
same,TGI,[52],81.8 µM
same,TGI,[53],> 100 µM
same,TGI,[54],> 100 µM
same,TGI,[55],> 100 µM
same,TGI,[56],> 76.6 µM
same,TGI,[57],> 100 µM
same,TGI,[58],48.5 µM
same,TGI,[59],> 81 µM
CN(C)c1ccc(Cc2cc(C(C)(C)C)cc(C(C)(C)C)c2O)cc1,TGI,[1],53 µM
same,TGI,[2],30.8 µM
same,TGI,[3],37.4 µM
same,TGI,[4],22.3 µM
same,TGI,[5],30.2 µM
same,TGI,[6],24.6 µM
same,TGI,[7],80.5 µM
same,TGI,[8],35.6 µM
same,TGI,[9],43.1 µM
same,TGI,[10],34.3 µM
same,TGI,[11],34 µM
same,TGI,[12],27.1 µM
same,TGI,[13],82.7 µM
same,TGI,[14],42.6 µM
same,TGI,[16],37.2 µM
same,TGI,[17],26.2 µM
same,TGI,[18],26 µM
same,TGI,[19],47.1 µM
same,TGI,[20],> 100 µM
same,TGI,[21],> 100 µM
same,TGI,[22],74.5 µM
same,TGI,[23],33.8 µM
same,TGI,[24],36.3 µM
same,TGI,[25],32.7 µM
same,TGI,[26],33.8 µM
same,TGI,[27],30.2 µM
same,TGI,[28],29.5 µM
same,TGI,[29],49.4 µM
same,TGI,[30],39.4 µM
same,TGI,[32],34 µM
same,TGI,[35],46.4 µM
same,TGI,[36],> 100 µM
same,TGI,[37],30.1 µM
same,TGI,[38],42 µM
same,TGI,[39],31.5 µM
same,TGI,[40],30.6 µM
same,TGI,[41],18.5 µM
same,TGI,[42],28.6 µM
same,TGI,[43],73.6 µM
same,TGI,[44],34.9 µM
same,TGI,[45],35.5 µM
same,TGI,[46],27.8 µM
same,TGI,[47],37.5 µM
same,TGI,[48],40.4 µM
same,TGI,[49],36.5 µM
same,TGI,[50],41.7 µM
same,TGI,[51],33.3 µM
same,TGI,[52],79.6 µM
same,TGI,[53],31.1 µM
same,TGI,[54],47.8 µM
same,TGI,[55],20.1 µM
same,TGI,[56],33.2 µM
same,TGI,[57],35.6 µM
same,TGI,[58],39.6 µM
same,TGI,[59],37 µM
CCOC(OC1=CCCC1)C(C)[Se]c1ccccc1 (configuration not stated),TGI,[1],88.4 µM
same,TGI,[2],72.8 µM
same,TGI,[3],> 100 µM
same,TGI,[4],28.9 µM
same,TGI,[5],> 100 µM
same,TGI,[6],> 100 µM
same,TGI,[7],> 100 µM
same,TGI,[8],59 µM
same,TGI,[9],71.7 µM
same,TGI,[10],32 µM
same,TGI,[11],31.3 µM
same,TGI,[12],> 100 µM
same,TGI,[13],> 100 µM
same,TGI,[14],> 100 µM
same,TGI,[15],39.9 µM
same,TGI,[16],> 100 µM
same,TGI,[17],> 100 µM
same,TGI,[18],45.1 µM
same,TGI,[19],> 100 µM
same,TGI,[20],42.9 µM
same,TGI,[21],48.4 µM
same,TGI,[22],> 100 µM
same,TGI,[23],41.2 µM
same,TGI,[24],41.4 µM
same,TGI,[25],> 100 µM
same,TGI,[26],41.8 µM
same,TGI,[27],> 100 µM
same,TGI,[28],52.4 µM
same,TGI,[29],66.3 µM
same,TGI,[30],> 100 µM
same,TGI,[31],81.4 µM
same,TGI,[32],> 100 µM
same,TGI,[33],> 100 µM
same,TGI,[34],> 100 µM
same,TGI,[35],> 100 µM
same,TGI,[36],46.6 µM
same,TGI,[37],83 µM
same,TGI,[38],> 100 µM
same,TGI,[39],64.6 µM
same,TGI,[41],60.6 µM
same,TGI,[42],20.4 µM
same,TGI,[43],> 100 µM
same,TGI,[44],> 100 µM
same,TGI,[45],> 100 µM
same,TGI,[46],43.7 µM
same,TGI,[47],40.1 µM
same,TGI,[48],79.6 µM
same,TGI,[49],45.1 µM
same,TGI,[50],> 100 µM
same,TGI,[51],62.3 µM
same,TGI,[52],90.4 µM
same,TGI,[53],44.4 µM
same,TGI,[54],> 100 µM
same,TGI,[55],> 100 µM
same,TGI,[56],> 100 µM
same,TGI,[57],> 100 µM
same,TGI,[58],> 100 µM
same,TGI,[59],35.9 µM
